Test results published in ChEMBL document CHEMBL1154973 (Bioorg Med Chem Lett, 2010).

Tests used:
Butyrylcholinesterase = Butyrylcholinesterase (Rattus norvegicus, UniProt Q9JKC1); assay: Inhibition of rat plasma BChE by Ellman's method; assay type: cell-free
Acetylcholinesterase = target: T1, Acetylcholinesterase (Rattus norvegicus, UniProt P37136); assay: Inhibition of rat brain AChE by Ellman's method
T1 sequence (P37136 whole entry): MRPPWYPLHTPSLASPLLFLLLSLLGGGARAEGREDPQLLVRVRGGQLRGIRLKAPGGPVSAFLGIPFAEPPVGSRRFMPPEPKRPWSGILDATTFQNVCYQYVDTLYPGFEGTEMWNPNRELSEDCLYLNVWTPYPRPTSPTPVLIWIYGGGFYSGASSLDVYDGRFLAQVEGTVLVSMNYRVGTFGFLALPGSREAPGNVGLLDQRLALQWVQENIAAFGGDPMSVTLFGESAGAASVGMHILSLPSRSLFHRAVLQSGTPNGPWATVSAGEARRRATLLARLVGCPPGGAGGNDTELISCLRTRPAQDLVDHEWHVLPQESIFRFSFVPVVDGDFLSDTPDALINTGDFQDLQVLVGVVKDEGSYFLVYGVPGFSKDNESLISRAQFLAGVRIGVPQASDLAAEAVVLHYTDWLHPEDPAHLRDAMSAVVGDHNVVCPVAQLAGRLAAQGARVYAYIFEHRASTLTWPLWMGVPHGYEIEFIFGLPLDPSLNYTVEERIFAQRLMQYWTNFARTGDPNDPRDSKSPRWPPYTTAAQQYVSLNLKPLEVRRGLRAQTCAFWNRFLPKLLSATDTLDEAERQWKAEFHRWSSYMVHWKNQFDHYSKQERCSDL

[1] = target: T2, Acetylcholinesterase and butyrylcholinesterase (AChE and BChE) (Rattus norvegicus) (UniProt P37136+Q9JKC1); assay: Selectivity ratio of IC50 for rat plasma BChE to IC50 for rat brain AChE; assay type: cell-free
T2 sequence (Q9JKC1 1-597, one chain of several): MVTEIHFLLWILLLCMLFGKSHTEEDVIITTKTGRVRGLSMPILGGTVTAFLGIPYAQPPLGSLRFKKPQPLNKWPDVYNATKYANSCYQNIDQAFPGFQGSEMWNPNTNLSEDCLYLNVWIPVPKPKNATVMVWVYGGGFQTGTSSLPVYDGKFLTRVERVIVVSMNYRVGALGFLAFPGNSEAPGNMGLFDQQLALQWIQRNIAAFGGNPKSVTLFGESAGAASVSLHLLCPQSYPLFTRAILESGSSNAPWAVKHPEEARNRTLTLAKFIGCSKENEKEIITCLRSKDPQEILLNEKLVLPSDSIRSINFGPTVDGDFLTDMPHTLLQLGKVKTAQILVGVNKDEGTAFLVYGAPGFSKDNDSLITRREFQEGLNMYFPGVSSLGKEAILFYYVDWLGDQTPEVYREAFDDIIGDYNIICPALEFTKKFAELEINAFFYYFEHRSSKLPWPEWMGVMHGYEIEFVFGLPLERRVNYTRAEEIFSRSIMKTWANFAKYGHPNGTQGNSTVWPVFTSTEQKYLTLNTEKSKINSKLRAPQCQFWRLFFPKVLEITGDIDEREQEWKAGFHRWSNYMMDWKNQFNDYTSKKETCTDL

[2] = target: T2, Acetylcholinesterase and butyrylcholinesterase (AChE and BChE) (Rattus norvegicus); assay: Selectivity ratio of IC50 for rat brain AChE to IC50 rat plasma BChE; assay type: cell-free

Butyrylcholinesterase, sequence (Q9JKC1 whole entry): as the sequence (Q9JKC1 1-597, one chain of several) above

Question: With Cc1ccc(NC(=O)Oc2ccc3c(c2)[C@]2(C)CCN(C)[C@@H]2N3C)cc1Cl as the compound, how does the IC50 (Butyrylcholinesterase) read?
Answer: The IC50 was 8.5 nM.

Question: And the IC50 (Acetylcholinesterase)?
Answer: Its IC50 is 7.3 nM.

Question: Which results are given for CC(C)c1cccc(C(C)C)c1NC(=O)Oc1ccc2c(c1)[C@]1(C)CCN(C)[C@@H]1N2C?
Answer: IC50 (Butyrylcholinesterase): 830 nM; IC50 (Acetylcholinesterase): 735 nM

Question: What does the source list for Cc1c(Cl)cccc1NC(=O)Oc1ccc2c(c1)[C@]1(C)CCN(C)[C@@H]1N2C?
Answer: Ratio IC50 [1]: 18; IC50 (Butyrylcholinesterase): 113 nM; IC50 (Acetylcholinesterase): 6.4 nM

Question: With CNC(=O)Oc1ccc2c(c1)[C@]1(C)CCN(C)[C@@H]1N2C [PHYSOSTIGMINE] as the compound, how does the IC50 (Butyrylcholinesterase) read?
Answer: Its IC50 is 7.6 nM.

Question: With CN1CC[C@@]2(C)c3cc(OC(=O)Nc4cccc(Cl)c4)ccc3N(C)[C@@H]12 as the compound, how does the Ratio IC50 [1] read?
Answer: The Ratio IC50 was 3.

Question: And the IC50 (Butyrylcholinesterase)?
Answer: The IC50 was 105 nM.

Question: And the IC50 (Acetylcholinesterase)?
Answer: The IC50 was 38.7 nM.

Question: CN1CC[C@@]2(C)c3cc(OC(=O)Nc4ccc(Br)cc4)ccc3N(C)[C@@H]12 was tested. Which IC50 (Butyrylcholinesterase) did it give?
Answer: The IC50 was 14.9 nM.

Question: And the IC50 (Acetylcholinesterase)?
Answer: Its IC50 is 168 nM.

Question: And the Ratio IC50 [2]?
Answer: The Ratio IC50 was 7.

Question: For CN1CC[C@@]2(C)c3cc(OC(=O)NC4CCCCC4)ccc3N(C)[C@@H]12, which Ratio IC50 [1] is on record?
Answer: The Ratio IC50 was 174.

Question: And the IC50 (Butyrylcholinesterase)?
Answer: The IC50 was 1400 nM.

Question: What about the IC50 (Acetylcholinesterase) of the same compound?
Answer: The IC50 was 8.5 nM.

Question: With CN1CC[C@@]2(C)c3cc(OC(=O)Nc4cccc(C#N)c4)ccc3N(C)[C@@H]12 as the compound, how does the Ratio IC50 [1] read?
Answer: The Ratio IC50 was 4.

Question: And the IC50 (Butyrylcholinesterase)?
Answer: The IC50 was 1020 nM.

Question: And the IC50 (Acetylcholinesterase)?
Answer: Its IC50 is 442 nM.

Question: CN1CC[C@@]2(C)c3cc(OC(=O)Nc4cccc5ccccc45)ccc3N(C)[C@@H]12 was tested. Which Ratio IC50 [1] did it give?
Answer: Its Ratio IC50 is 3.

Question: And the IC50 (Butyrylcholinesterase)?
Answer: Its IC50 is 14.1 nM.

Question: What about the IC50 (Acetylcholinesterase) of the same compound?
Answer: Its IC50 is 4.2 nM.

Question: With CN1CC[C@@]2(C)c3cc(OC(=O)Nc4cc(Cl)cc(Cl)c4)ccc3N(C)[C@@H]12 as the compound, how does the Ratio IC50 [1] read?
Answer: The Ratio IC50 was 8.

Question: What about the IC50 (Butyrylcholinesterase) of the same compound?
Answer: The IC50 was 935 nM.

Question: And the IC50 (Acetylcholinesterase)?
Answer: The IC50 was 113 nM.

Question: Which IC50 (Butyrylcholinesterase) does the source give for CN1CC[C@@]2(C)c3cc(OC(=O)Nc4ccc(Cl)cc4)ccc3N(C)[C@@H]12 here?
Answer: The IC50 was 61.3 nM.

Question: And the IC50 (Acetylcholinesterase)?
Answer: Its IC50 is 914 nM.

Question: And the Ratio IC50 [2]?
Answer: The Ratio IC50 was 15.

Question: CN1CC[C@@]2(C)c3cc(OC(=O)Nc4cccc(Cl)c4Cl)ccc3N(C)[C@@H]12 was tested. Which Ratio IC50 [1] did it give?
Answer: Its Ratio IC50 is 8.

Question: What about the IC50 (Butyrylcholinesterase) of the same compound?
Answer: Its IC50 is 517 nM.

Question: And the IC50 (Acetylcholinesterase)?
Answer: Its IC50 is 66.2 nM.

Question: How did the IC50 (Butyrylcholinesterase) turn out when COc1ccc(NC(=O)Oc2ccc3c(c2)[C@]2(C)CCN(C)[C@@H]2N3C)cc1 was run?
Answer: The IC50 was 5.8 nM.

Question: And the IC50 (Acetylcholinesterase)?
Answer: The IC50 was 29.9 nM.

Question: And the Ratio IC50 [2]?
Answer: The Ratio IC50 was 5.

Question: What does the source list for CN1CC[C@@]2(C)c3cc(OC(=O)Nc4ccccc4Br)ccc3N(C)[C@@H]12?
Answer: IC50 (Butyrylcholinesterase): 39.6 nM; IC50 (Acetylcholinesterase): 66.5 nM

Question: How did the Ratio IC50 [1] turn out when CN1CC[C@@]2(C)c3cc(OC(=O)Nc4ccccc4)ccc3N(C)[C@@H]12 [PHENSERINE] was run?
Answer: The Ratio IC50 was 10.

Question: And the IC50 (Butyrylcholinesterase)?
Answer: Its IC50 is 104 nM.

Question: And the IC50 (Acetylcholinesterase)?
Answer: Its IC50 is 11.9 nM.

Question: What does the source list for CN1CC[C@@]2(C)c3cc(OC(=O)Nc4ccccc4Cl)ccc3N(C)[C@@H]12?
Answer: IC50 (Butyrylcholinesterase): 88.7 nM; IC50 (Acetylcholinesterase): 264 nM; Ratio IC50 [2]: 3
